# Measurements reported in US7947839B2, “Heterocyclic-substituted bis-1,8 naphthalimide compounds, antibody drug conjugates, and methods of use” (Genentech, Inc., priority 2004, dated 2011).
# Structures can show the parent of a compound that is named as a salt. Where two headings read alike, the source gives them in different places.
# System: BT474, H460, HCT116, HUVEC, LNCAP, MCF7, and PC3 cells
# Assay: free test compound cell-based assay, 7 tumor cell panel (CellTiter-Glo)
# Parameters: species or system Human
# Conditions: NSA = no significant activity; for IC50: Homo sapiens
# Experimental: Heterocyclic-substituted bis-1,8-naphthalimide compounds of Formula XV in Table 2 were prepared and tested for in vitro activity against a panel of tumor cells (Example 110).
# Alternatively, the efficacy of compounds of the invention can be assayed by the following free test compound cell-based assay protocol
# • 1. Prepare each cell line (BT474, H460, HCT116, HUVEC, LNCaP, MCF7, and PC3) at 1 k cells/well in separate plates with Complete Media (CM): RPM1 […]+10% FBS (Fetal Bovine Serum)+1% of 200 mM L-Glutamine. Plate number depends on test compounds provided by submitter. • 2. Detach prospective cell lines by first removing the media. When the flask is empty of media, begin rinsing out individual flasks with 5 mL sterile PBS. Move the PBS around within the flask to rinse well. Decant the PBS and add aseptically 5 mL of Accutase/flask. Make sure the Accutase covers the entire flask. • 3. Immediately place the flask(s) into a 37° C. incubator to allow cells to detach for 5-7 minutes. • 4. Post 5-7 minutes, remove flask(s) from the incubator and begin harvesting the detached cells using a serological pipette. Pipette up and down along the back of the flask to facilitate cell detachment. Pipette the Accutase containing cells into a sterile 50 mL conical tube/cell line. Pipette 10 mL of sterile PBS and re-rinse the flask to obtain remaining cells and dispense it into the same 50 mL conical tube/cell line for a total volume of 15 mL/tube/cell line. • 5. After each cell line has been allocated to a designated tube, take out 100 μL/tube/cell line for the cell counts. While the cell counts are being calculated, centrifuge the 50 mL tubes at 1000 rpm at 4° C. with a high brake. • 6. When centrifugation and cell calculations are completed, decant excess liquid and resuspend the cell pellet(s) using 5 mL CM, depending on calculations. • 7. Using a 5 mL syringe and an 18 G ½ needle, strain the cells to help prevent aggregation. Further strain by using a […] cell filter to block out any huge aggregates not broken down by the needle. • 8. After cell straining and filtering, take out calculated amount for a 1 k cells/well into fresh media. Take the media containing cells and load 100 μL/well into a bottom tissue culture treated flat 96 well plate. • 9. Immediately place in a 37° C. incubator overnight to allow the cells to adhere to the tissue culture treated 96 well plates. Day 2: • 1. Test compounds are submitted at 10 mM in sterile DMSO. • 2. DMSO as negative control and a positive standard are used in every assay! • 3. Prepare a 1:1000 fold dilution for each test compound, control, and standard for a 10e-5 M starting point. Do a 1:100 first, then a 1:10. • 4. Prior to diluting samples, vortex the samples and the controls for a homogeneous mixture. Note any sample that will not solubilize and/or stay in suspension. • 5. When the samples are at 10e-5 M, vortex each tube well and spin down fluid to ensure sample remains in tacked. Manual Dilution Protocol: • 1. After the tubes are at a final 1:1000 (10e-5 M) dilution, load the first column of the microtube box with the prospective sample. Load DMSO and positive control in singlets. The test compounds are loaded in duplicates. Load the remaining empty microtube racks with 540 μL of media to prepare for a serial dilution of 1:10. • 2. Agitate and transfer 60 μL from column 1 into successive wells containing 540 μL of media (1:10). Therefore, transfer 60 μL of column 1 into 540 μL of column 2. Resuspend column 2 about 10-15×'s then transfer 60 μL from column 2 to column 3 etc. Automated Dilution Protocol: • 1. Once the tubes are at a final 1:1000 (10e-5 M), load the first column of the microtube box with the prospective sample. Load DMSO and positive control in singlets. The compounds are loaded in duplicates. Load the remaining empty microtube racks manually with 540 μL of media to prepare for the automated serial dilution of 1:10 (see above diagram). • 2. […]
# [1] = average linear IC50 across the 7 tumor cell panel, read-out: Avg.
# [2] = average log IC50 across the 7 tumor cell panel, read-out: Avg. (log IC50) (converted)
# [3] = average linear IC50 across the 7 tumor cell panel
# [4] = average log IC50 across the 7 tumor cell panel
Structure (SMILES),IC50 [1] [nM],IC50 [2] [nM],Avg. (nM) [3],Avg. (log IC50) [4]
"O=C1c2cccc3c(N4CCOCC4)ccc(c23)C(=O)N1CCN1C=[N+](CCN2C(=O)c3cccc4c(N5CCOCC5)ccc(c34)C2=O)CCC1 [Compound 57, N, N′-(bis-aminoethyl-1,4,5,6-tetrahydropyrimidinium)-bis-4-morpholino-1,8 naphthalimide]",468,468,–,–
"O=C1c2cccc3c(-n4ccnc4)ccc(c23)C(=O)N1CCNCCCNCCN1C(=O)c2cccc3c(-n4ccnc4)ccc(c23)C1=O [Compound 24b, N, N′-(bis-aminoethyl-1,3-propanediamine)-bis-(4-N-imidazolyl)-1,8 naphthalimide]",0.41,0.407,–,–
"CC(=O)N1CCN(c2ccc3c4c(cccc24)C(=O)N(CCNCCCNCCN2C(=O)c4cccc5c(N(C)C)ccc(c45)C2=O)C3=O)CC1 [Compound 64, N, N′-(bis-aminoethyl-1,3-propanediamine)-4-(4-acetylpiperazino)-4-dimethylamino-1,8 naphthalimide]",1.82,1.82,–,–
"CC(=O)N(CCCNCCN1C(=O)c2cccc3c(N4CCOCC4)ccc(c23)C1=O)CCN1C(=O)c2cccc3c(N4CCOCC4)ccc(c23)C1=O [Compound 54c, N, N′-(N-acetyl, bis-aminoethyl-1,3-propanediamine)-bis-4-morpholino-1,8 naphthalimide]",191,191,–,–
"CCN(CCCNCCN1C(=O)c2cccc3c(N4CCOCC4)ccc(c23)C1=O)CCN1C(=O)c2cccc3c(N4CCOCC4)ccc(c23)C1=O [Compound 30a, N, N′-(N-ethyl, bis-aminoethyl-1,3-propanediamine)-bis-4-morpholino-1,8 naphthalimide]",3.98,3.98,–,–
"O=C(CC(=O)NCCN1C(=O)c2cccc3c(N4CCOCC4)ccc(c23)C1=O)NCCN1C(=O)c2cccc3c(N4CCOCC4)ccc(c23)C1=O [Compound 35, N, N′-(bis-ethyl, malondiamide)-bis-4-morpholino-1,8 naphthalimide]",–,–,NSA,NSA
"COCCOCCOCC(=O)N(CCCNCCN1C(=O)c2cccc3c(N4CCOCC4)ccc(c23)C1=O)CCN1C(=O)c2cccc3c(N4CCOCC4)ccc(c23)C1=O [Compound 54g, N, N′-(N-methylethoxyethoxyacetyloxy, bis-aminoethyl-1,3-propanediamine)-bis-4-morpholino-1,8 naphthalimide]",692,692,–,–
"NCC(=O)N(CCCNCCN1C(=O)c2cccc3c(N4CCOCC4)ccc(c23)C1=O)CCN1C(=O)c2cccc3c(N4CCOCC4)ccc(c23)C1=O [Compound 54d, N, N′-(N-glycyl, bis-aminoethyl-1,3-propanediamine)-bis-4-morpholino-1,8 naphthalimide]",324,324,–,–
CN1CCN(c2ccc3c4c(cccc24)C(=O)N(CCNCCCNCCN2C(=O)c4cccc5c(N6CCN(C)CC6)ccc(c45)C2=O)C3=O)CC1 [Compound 24a],0.71,0.708,–,–
"CCOC(=O)N(CCCNCCN1C(=O)c2cccc3c(N4CCOCC4)ccc(c23)C1=O)CCN1C(=O)c2cccc3c(N4CCOCC4)ccc(c23)C1=O [Compound 54f, N, N′-(N-carboethoxy, bis-aminoethyl-1,3-propanediamine)-bis-4-morpholino-1,8 naphthalimide]",692,692,–,–
"CC(=O)N1CCN(c2ccc3c4c(cccc24)C(=O)N(CCNCCNCCN2C(=O)c4cccc5c(N6CCN(C(C)=O)CC6)ccc(c45)C2=O)C3=O)CC1 [Compound 63a, N, N′-(bis-aminoethyl-1,2-ethanediamine)-bis 4-(4-acetylpiperazino)-1,8 naphthalimide]",4.47,4.47,–,–
"O=C1c2cccc3c(N4CCOCC4)ccc(c23)C(=O)N1CCNCCCNCCN1C(=O)c2cccc3c(N4CCOCC4)ccc(c23)C1=O [Compound 20, N, N′-(bis-aminoethyl-1,3-propanediamine)-bis-4-morpholino-1,8 naphthalimide]",2.57,2.57,–,–
"O=C1c2cccc3c(N4CCNCC4)ccc(c23)C(=O)N1CCNCCNCCN1C(=O)c2cccc3c(N4CCNCC4)ccc(c23)C1=O [Compound 58b, N, N′-(bis-aminoethyl-1,2-ethanediamine)-bis-4-piperazino-1,8 naphthalimide]",26.9,26.9,–,–
"CC(=O)N1CCN(c2ccc3c4c(cccc24)C(=O)N(CCNCCCNCCN2C(=O)c4cccc5c(N6CCN(C(C)=O)CC6)ccc(c45)C2=O)C3=O)CC1 [Compound 63c, N, N′-(bis-aminoethyl-1,3-propanediamine)-bis-4-(4-acetylpiperazino)-1,8 naphthalimide]",1.1,1.1,–,–
"O=C1c2cccc3c(N4CCOCC4)ccc(c23)C(=O)N1CCOCCOCCN1C(=O)c2cccc3c(N4CCOCC4)ccc(c23)C1=O [Compound 54b, N, N′-(3,6-dioxaoctanylene)-bis-4-morpholino-1,8 naphthalimide]",–,–,NSA,NSA
"CC(=O)N1CCN(c2ccc3c4c(cccc24)C(=O)N(CCN2C=[N+](CCN4C(=O)c5cccc6c(N7CCN(C(C)=O)CC7)ccc(c56)C4=O)CC2)C3=O)CC1 [Compound 63b, N, N′-(bis-aminoethy-4,5-dihydro-imidazolium)-bis 4-(4-acetylpiperazino)-1,8 naphthaliinide]",251,251,–,–
"O=C1c2cccc3c(N4CCNCC4)ccc(c23)C(=O)N1CCN1C=[N+](CCN2C(=O)c3cccc4c(N5CCNCC5)ccc(c34)C2=O)CCC1 [Compound 59, N, N′-(bis-aminoetbyl-1,4,5,6-tetrahydropyrimidinium)-bis-4-piperazino-1,8 naphthalimide trifluoroacetate salt]",1.51,1.51,–,–
"Nc1ccc2c3c(cccc13)C(=O)N(CCNCCCNCCN1C(=O)c3cccc4c(N5CCOCC5)ccc(c34)C1=O)C2=O [Compound 56b, N, N′-(bis-aminoethyl-1,3-propanediamine)-4-amino, 4-morpholino-1,8 naphthalimide]",18.6,18.6,–,–
"O=C1c2cccc3c(N4CCOCC4)ccc(c23)C(=O)N1CCCCNCCCN1C(=O)c2cccc3c(N4CCOCC4)ccc(c23)C1=O [Compound 45, N, N′-(4-aza-octanyl)-bis-4-morpholino-1,8 naphthalimide]",1510,1510,–,–
"C[C@H](N)C(=O)N(CCCNCCN1C(=O)c2cccc3c(N4CCOCC4)ccc(c23)C1=O)CCN1C(=O)c2cccc3c(N4CCOCC4)ccc(c23)C1=O [Compound 54e, N, N′-(N-alanyl, bis-aminoethyl-1,3-propanediamine)-bis-4-morpholino-1,8 naphthalimide]",126,126,–,–
"O=C1c2cccc3c(N4CCOCC4)ccc(c23)C(=O)N1CCNCCCN(CCN1C(=O)c2cccc3c(N4CCOCC4)ccc(c23)C1=O)C(=O)C(F)(F)F [Compound 54h, N, N′-(N-trifluoromethylacetyl, bis-aminoethyl-1,3-propanediamine)-bis-4-morpholino-1,8 naphthalimide]",309,309,–,–
"O=C1c2cccc3c(N4CCOCC4)ccc(c23)C(=O)N1CCNCCNCCN1C(=O)c2cccc3c(N4CCOCC4)ccc(c23)C1=O [Compound 54a, N, N′-(bis-aminoethyl-1,2-ethanediamine)-bis-4-morpholino-1,8 naphthalimide]",22.9,22.9,–,–
